Laboratory results reported in ChEMBL document CHEMBL6071136, “Discovery of macrocyclic covalent inhibitors for severe acute respiratory syndrome coronavirus 2 3CL protease” (Bioorg Med Chem, 2024).

Columns and labels:
[1] = molecular target: Replicase polyprotein 1ab (Severe acute respiratory syndrome coronavirus 2, UniProt P0DTD1); experiment: Inhibition of SARS-CoV-2 3CL protease using Dabcyl-KTSAVLQSGFRKM-(Edans) as substrate preincubated for 30 mins followed by substrate addition and measured after 60 mins by fluorescence based microplate reader assay
[2] = Metabolic stability in rat liver microsomes assessed as half life measured upto 60 mins in presence of NADPH by LC/MS-MS analysis; type: ADME, Microsome
[3] = Metabolic stability in human liver microsomes assessed as half life measured upto 60 mins in presence of NADPH by LC/MS-MS analysis; type: ADME, Microsome
SARS-CoV-2 = experiment: microbe, parasite or virus in culture; conditions: Severe acute respiratory syndrome coronavirus 2, Huh-7, 24 h
[4] = Metabolic stability in human liver S9 fraction assessed as half life measured upto 60 mins by LC/MS-MS analysis; type: ADME, subcellular
[5] = Apparent permeability across apical to basolateral side in human Caco-2 cells incubated for 2 hrs by LC-MS/MS analysis; type: ADME, cell-based
[6] = Efflux ratio of apparent permeability across basolateral to apical side over apical to basolateral side in human Caco-2 cells; type: ADME, cell-based
[7] = Cmax in Sprague-Dawley rat at 10 mg/kg, po measured upto 24 hrs by LC/MS-MS analysis; type: ADME, organism-based; conditions: in vivo
[8] = Half-life in Sprague-Dawley rat at 10 mg/kg, po measured upto 24 hrs by LC/MS-MS analysis; type: ADME, organism-based; conditions: in vivo
[9] = AUClast in Sprague-Dawley rat at 10 mg/kg, po measured upto 24 hrs by LC/MS-MS analysis; type: ADME, organism-based; conditions: in vivo
[10] = Stability of compound in FaSSGF at 10 uM measured after 4 hrs by LC-MS analysis; type: physicochemical
[11] = Tmax in Sprague-Dawley rat at 10 mg/kg, po measured upto 24 hrs by LC/MS-MS analysis; type: ADME, organism-based; conditions: in vivo
[12] = Cmax in Sprague-Dawley rat at 50 mg/kg, po measured upto 24 hrs by LC/MS-MS analysis; type: ADME, organism-based; conditions: in vivo
[13] = Tmax in Sprague-Dawley rat at 50 mg/kg, po measured upto 24 hrs by LC/MS-MS analysis; type: ADME, organism-based; conditions: in vivo
[14] = Half-life in Sprague-Dawley rat at 50 mg/kg, po measured upto 24 hrs by LC/MS-MS analysis; type: ADME, organism-based; conditions: in vivo
[15] = AUClast in Sprague-Dawley rat at 50 mg/kg, po measured upto 24 hrs by LC/MS-MS analysis; type: ADME, organism-based; conditions: in vivo

SMILES: CC1(C)CNC(=O)[C@@H]2C[C@@H](C[C@@H](C#N)NC(=O)[C@@H]3[C@@H]4[C@H](CN3C(=O)[C@H]1NC(=O)OCc1ccccc1)C4(C)C)C(=O)N2
- IC50 [1]: 8.8 nM
- half-life [2]: 4.3 min
- half-life [3]: 4.3 min
- EC50 (SARS-CoV-2): 73 nM

SMILES: CC1(C)COC(=O)[C@@H]2C[C@@H](C[C@@H](C#N)NC(=O)[C@@H]3[C@@H]4[C@H](CN3C(=O)[C@H]1NC(=O)OC1CC1)C4(C)C)C(=O)N2
- IC50 [1]: 17 nM
- half-life [3]: > 180 min
- half-life [4]: > 180 min
- Papp A→B at 2 h [5]: 0.08 ×10⁻⁶ cm/s
- efflux ratio [6]: 20
- EC50 (SARS-CoV-2): 67 nM

SMILES: CN1CC(C)(C)[C@H](NC(=O)C(F)(F)F)C(=O)N2C[C@H]3[C@@H]([C@H]2C(=O)N[C@H](C#N)C[C@@H]2C[C@H](NC2=O)C1=O)C3(C)C
- IC50 [1]: > 10000 nM
- EC50 (SARS-CoV-2): > 10000 nM

SMILES: COC(=O)N[C@@H]1C(=O)N2C[C@H]3[C@@H]([C@H]2C(=O)N[C@H](C#N)C[C@@H]2C[C@H](NC2=O)C(=O)OCCC1(C)C)C3(C)C
- IC50 [1]: 8.9 nM
- half-life [3]: > 180 min
- Papp A→B at 2 h [5]: 0.03 ×10⁻⁶ cm/s
- efflux ratio [6]: 65
- EC50 (SARS-CoV-2): 179 nM

SMILES: CC(C)(C)[C@H](NC(=O)C(F)(F)F)C(=O)N1C[C@H]2[C@@H]([C@H]1C(=O)N[C@H](C#N)C[C@@H]1CCNC1=O)C2(C)C
- half-life [2]: 127 min
- half-life [3]: 20.6 min
- Papp A→B at 2 h [5]: 0.27 ×10⁻⁶ cm/s
- Cmax [7]: 2840 ng/mL
- half-life [8]: 76.2 min
- AUC(0-t) at 24 h [9]: 2020 ng·h/mL

SMILES: COC(=O)N[C@@H]1C(=O)N2C[C@H]3[C@@H]([C@H]2C(=O)N[C@H](C#N)C[C@@H]2C[C@H](NC2=O)C(=O)OCC1(C)C)C3(C)C
- IC50 [1]: 8.6 nM
- half-life [2]: 76.2 min
- half-life [3]: > 180 min
- half-life [4]: > 180 min
- Papp A→B at 2 h [5]: 0.16 ×10⁻⁶ cm/s
- efflux ratio [6]: 30
- Stability [10]: Stable
- Cmax [7]: 87.5 ng/mL
- Tmax [11]: 20 min
- half-life [8]: 68.4 min
- AUC(0-t) at 24 h [9]: 72.9 ng·h/mL
- EC50 (SARS-CoV-2): 52 nM

SMILES: CN1CC(C)(C)[C@H](NC(=O)OCc2ccccc2)C(=O)N2C[C@H]3[C@@H]([C@H]2C(=O)N[C@H](C#N)C[C@@H]2C[C@H](NC2=O)C1=O)C3(C)C
- IC50 [1]: > 10000 nM
- half-life [4]: 0.17 min
- Papp A→B at 2 h [5]: 0.17 ×10⁻⁶ cm/s
- efflux ratio [6]: 12
- EC50 (SARS-CoV-2): > 10000 nM

SMILES: CC(C)(C)C(=O)N[C@@H]1C(=O)N2C[C@H]3[C@@H]([C@H]2C(=O)N[C@H](C#N)C[C@@H]2C[C@H](NC2=O)C(=O)NCC1(C)C)C3(C)C
- IC50 [1]: 307 nM

SMILES: CC1(C)CCOC(=O)[C@@H]2C[C@@H](C[C@@H](C#N)NC(=O)[C@@H]3[C@@H]4[C@H](CN3C(=O)[C@H]1NC(=O)C(F)(F)F)C4(C)C)C(=O)N2
- IC50 [1]: 12 nM
- half-life [2]: > 180 min
- half-life [3]: > 180 min
- Papp A→B at 2 h [5]: 0.02 ×10⁻⁶ cm/s
- efflux ratio [6]: 342
- Stability [10]: Stable
- Cmax [7]: 16.2 ng/mL
- Tmax [11]: 15 min
- half-life [8]: 20 min
- AUC(0-t) at 24 h [9]: 5.94 ng·h/mL
- Cmax [12]: 102 ng/mL
- Tmax [13]: 20 min
- half-life [14]: 28.3 min
- AUC(0-t) at 24 h [15]: 72.9 ng·h/mL
- EC50 (SARS-CoV-2): 26 nM

SMILES: Cc1cccc(C)c1OCC(=O)N[C@@H]1C(=O)N2C[C@H]3[C@@H]([C@H]2C(=O)N[C@H](C#N)C[C@@H]2C[C@H](NC2=O)C(=O)NCC1(C)C)C3(C)C
- IC50 [1]: 320 nM
- half-life [3]: 4 min
- Papp A→B at 2 h [5]: 0.13 ×10⁻⁶ cm/s
- efflux ratio [6]: 64
- EC50 (SARS-CoV-2): 5570 nM

SMILES: CC1(C)CNC(=O)[C@@H]2C[C@@H](C[C@@H](C#N)NC(=O)[C@@H]3[C@@H]4[C@H](CN3C(=O)[C@H]1NC(=O)C(F)(F)F)C4(C)C)C(=O)N2
- IC50 [1]: 18 nM
- half-life [3]: > 180 min
- EC50 (SARS-CoV-2): 264 nM

SMILES: CC1(C)COC(=O)[C@@H]2C[C@@H](C[C@@H](C#N)NC(=O)[C@@H]3[C@@H]4[C@H](CN3C(=O)[C@H]1NC(=O)OCc1ccccc1)C4(C)C)C(=O)N2
- IC50 [1]: 6.4 nM
- half-life [3]: 6.5 min
- Papp A→B at 2 h [5]: 0.16 ×10⁻⁶ cm/s
- efflux ratio [6]: 108
- EC50 (SARS-CoV-2): 25 nM

SMILES: CC1(C)CNC(=O)[C@@H]2C[C@@H](C[C@@H](C#N)NC(=O)[C@@H]3[C@@H]4[C@H](CN3C(=O)[C@H]1NC(=O)COc1ccc(F)cc1F)C4(C)C)C(=O)N2
- IC50 [1]: 70 nM
- half-life [3]: 6.3 min
- EC50 (SARS-CoV-2): 1550 nM
